This note sets out measurements from patent publication US20260146044A1, “AROMATIC COMPOUND, PHARMACEUTICAL COMPOSITION CONTAINING SAME, AND USE THEREOF” (Increland, priority 2023, published 2026).

Data set [1] concerns secretion levels of IL-6 in PBMC cells. Kind of data set: Inhibition of R848-induced IL-6 secretion in PBMC (IL-6 ELISA). Type of data set: cell-based. The conditions noted are these: human PBMC, 20 h compound pre-incubation, 24 h stimulation. As to the method: This experiment was carried out in RPMI 1640 medium containing 10% FBS/1% penicillin/streptomycin, with each of the compounds at an initial test concentration of 1 μM. The compound DMSO was dissolved to form a stock solution, which was gradiently diluted 4-fold with the culture medium to a 4× working solution concentration. The diluted solution was added to a 96-well plate with 50 μL per well. PBMC (batch No.: HPP20062307, Sichuan Hope Bio-tech Co., Ltd.) cells were counted, and diluted to a concentration of 2×10^6/mL. The diluted cells were added to the above compound-containing 96-well plate with 150 μL per well, fully mixed, and incubated in an incubator with 5% CO2 at 37° C. for 20 h. Then, R848 was further added until a final concentration of […], and the cells were further incubated in the incubator with 5% CO2 at 37° C. for additional 24 h. Then, after centrifugation at 2,000 rpm for 4 min, the supernatant was diluted 110×, and detected using an IL-6 ELISA kit. An OD450 value was read, and converted to an IL-6 concentration based on a standard curve, to calculate an IC50 value by fitting a dose-effect curve using GraphPad 5.0.

A short description of data set [2]: Metabolic stability in human liver microsome. The conditions noted are these: liver microsomes. Background: Liver microsomes are a subcellular fraction often used to study metabolism.
Experimental: (§1) Blank incubation plates T60 and NCF60 were preheated for 10 min; liver microsome was diluted to 0.56 mg/mL in 100 mM phosphate buffer, 445 μL of the microsome working solution (0.56 mg/mL) was transferred to the preheated “incubation” plates T60 and NCF60, and then the incubation plates T60 and NCF60 were pre-incubated with continuous shaking at 37° C. for 10 min. 54 μL of the liver microsome was transferred to a blank plate, then 6 μL of a NAPDH cofactor was added to the blank plate, and then 180 μL of a quenching solution was added to the blank plate; 5 µL of a composite working solution (100 μM) was added to each of the microsome-containing incubation plates (T60 and NCF60), and the mixture was thoroughly mixed 3 times; 50 μL of a buffer was added to the NCF60 plate, and the mixture was thoroughly mixed 3 times. Timing was started; the plates were incubated with shaking at 37° C. for 60 min; and 180 μL of a quenching solution and 6 μL of the NAPDH cofactor were added to a quenching plate TO. The plates were ensured to be cooled to prevent evaporation. For the T60 plate, the mixture was thoroughly mixed 3 times, and 54 μL of the mixture was immediately transferred to the quenching plate at the time point of 0 min. Then, 44 μL of the NAPDH cofactor was added to the incubation plate (T60). Timing was started; and the plate was incubated with shaking at 37° C. for 60 min. At 5, 15, 30, 45, and 60 min, 180 μL of the quenching solution was added to the quenching plate, mixed once, and then 60 μL of sample was continuously transferred from the plate T60 to the quenching plate at each time point.
(§2) For NCF60, the mixture was mixed once, and at the time point of 60 min, 60 μL of sample was transferred from the NCF60 incubator to the quenching solution-containing quenching plate. All sampling plates were shaken for 10 min, then centrifuged at 4,000 rpm at 4° C. for 20 min. 80 µL of the supernatant was transferred to 240 μL of HPLC water, and mixed using a plate shaker for 10 min.
Data set [3] in a line: Metabolic stability in mouse liver microsome. The settings on record: liver microsomes.
Experimental: as §1, §2
Data set [4] relates to secretion levels of IL-6 in PBMC cells. In words: Inhibition of LPS+IL-1β-induced IL-6 secretion in PBMC (IL-6 ELISA). The conditions noted are these: human PBMC, 24 h compound pre-incubation, 20 h stimulation. Type of data set: cell-based. The procedure: This experiment was carried out in RPMI 1640 medium containing 10% FBS/1% penicillin/streptomycin, with each of the compounds at an initial test concentration of 1 μM. The compound DMSO was dissolved to form a stock solution, which was gradiently diluted 5-fold with the culture medium to a 4× working solution concentration. The diluted solution was added to a 96-well plate with 50 μL per well. PBMC (batch No.: HPP20062307, Sichuan Hope Bio-tech Co., Ltd.) cells were counted, and diluted to a concentration of 2×10^6/mL. The diluted cells were added to the above compound-containing 96-well plate with 150 μL per well, fully mixed, and incubated in an incubator with 5% CO2 at 37° C. for 24 h. Then, LPS and […] were further added to final concentrations of 10 ng/mL and 20 ng/mL, respectively, and the cells were further incubated in the incubator with 5% CO2 at 37° C. for 20 h. Then, after centrifugation at 2,000 rpm for 4 min, the supernatant was diluted 110×, and detected using an IL-6 ELISA kit. An OD450 value was read, and converted to an IL-6 concentration based on a standard curve, to calculate an IC50 value by fitting a dose-effect curve using GraphPad 5.0.
For orientation: In an ELISA, binding on a coated surface is turned into a signal by an enzyme label.

The target of another data set is T1, IRAK4 protein (Homo sapiens, UniProt Q9NWZ3).
T1 construct: Effects of Compounds on IRAK4 Protein Degradation in THP1 Cells; endogenous in cells; host or cells: THP-1 cells
T1 sequence (Q9NWZ3 1-460): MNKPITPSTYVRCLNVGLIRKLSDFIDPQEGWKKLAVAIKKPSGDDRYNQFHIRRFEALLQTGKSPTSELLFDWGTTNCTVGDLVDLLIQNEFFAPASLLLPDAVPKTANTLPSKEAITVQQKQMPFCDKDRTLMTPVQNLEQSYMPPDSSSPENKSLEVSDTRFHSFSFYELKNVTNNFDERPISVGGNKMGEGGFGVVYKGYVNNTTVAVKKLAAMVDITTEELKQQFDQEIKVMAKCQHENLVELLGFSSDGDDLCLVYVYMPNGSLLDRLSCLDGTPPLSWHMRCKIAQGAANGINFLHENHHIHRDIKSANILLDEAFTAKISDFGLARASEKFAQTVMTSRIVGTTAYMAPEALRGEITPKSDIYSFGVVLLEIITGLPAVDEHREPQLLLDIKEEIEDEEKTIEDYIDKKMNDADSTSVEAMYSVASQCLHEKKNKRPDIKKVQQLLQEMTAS
In words: IRAK4 protein degradation in THP1 cells (Western blot). Type of data set: cell-based. The settings on record: 24 h. As to the method:
THP-1 cells were inoculated into a 96-well cell culture plate, with 5×10^4 cells and 100 μL of a culture medium per well. The cell culture plate was cultured in an incubator with 5% CO2 at 37° C. overnight. 100 nl of a well-prepared compound stock solution and a compound-free DMSO stock solution were respectively added to cells per well. The cell culture plate was incubated in an incubator with 5% CO2 at 37° C. for 24 h. One protease inhibitor tablet and one phosphatase inhibitor tablet were added to 20 mL of a cell lysis buffer, and they were gently mixed until complete dissolution. DTT at a final concentration of 200 mM was added to a 4× sample preparation buffer to prepare a 4× sample preparation working solution. 20× electrophoretic buffer was diluted to 1× with ultrapure water. 20× transfer buffer was diluted to 1× with ultrapure water, and 20% methanol was added. […] IRAK4 protein primary antibody working solution: 20 μl of IRAK4 antibody added to 20 mL of a blocking solution; β-Actin primary antibody working solution: 2 μl of beta-actin (13E5) Rabbit mAb antibody added to 20 mL of a blocking solution. IRAK4 protein secondary antibody working solution: Donkey Anti-Goat IgG H&L (HRP) diluted 1/5,000 in a blocking solution; 3-Actin secondary antibody working solution: Anti-rabbit IgG, RP-linked antibody diluted 1/10,000 in a blocking solution. The cell culture plate was centrifuged at 3,000 rpm for 3 min, and most of the culture medium was carefully pipetted. The cell plate was inverted, and centrifuged at 300 rpm for 30 s. 45 μL of a lysis buffer was added to each well. The mixture was shaken at 300 rpm for 30 s, allowed to stand on ice for 30 min, and pipetted 30 times at 20 min. 6 μL of 4× sample preparation working solution was added to 18 μL of protein supernatant for sample preparation, and the mixture was heated at 70° C. for 10 min. Remaining protein samples were stored at −80° C. In the precast gel, 8 μl of sample was loaded into each well for electrophoresis at a constant voltage of 120 V for about 60 min, transferred using a PVDF membrane at a constant current of 300 mA for 1 h, then blocked with a blocking solution at room temperature for 1 h, and incubated in a primary antibody working solution at 4° C. overnight. The membrane was washed with 1×TBST buffer for 3×10 min. The secondary antibody working solution was incubated at room temperature for 1 h. The membrane was washed with 1×TBST buffer for 3×10 min, and a chromogenic solution was used for exposure and color development.
(In general: In western blotting, separated proteins are transferred to a membrane and probed.)

Data set [5] can be described thus: Pharmacokinetic experiment on SD rats (iv and ig). The conditions noted are these: Sprague-Dawley, rat, plasma; for Cmax: read-out: Peak plasma concentration Cmax; for bioavailability: ig 5.00 mg/kg vs iv 1.00 mg/kg, read-out: Oral bioavailability Fobs (%). Type of data set: in vivo. The procedure:
Pharmacokinetic experiment on SD rats: in this experiment, two administration modes: oral intragastric administration and tail vein injection were selected. Each of the compounds of the present patented invention was administered at an oral dose of 5 mg/kg at an administration volume of 10 mL/kg. […] Appropriate amounts of Solutol and H2O were proportionally added sequentially, and fully mixed ultrasonically by vortexing, to prepare a clear drug solution at 0.5 mg/mL. ICL004-protodrug was administered by intravenous injection at a dose of 1 mg/kg at an administration volume of 10 mL/kg. Right before use, an appropriate amount of the drug was accurately weighed, to prepare a final volume of 20% PEG 400 and 80% Saline. Appropriate amounts of PEG 400 and Saline were proportionally added sequentially, and fully mixed ultrasonically by vortexing, to prepare a clear drug solution at 0.1 mg/mL.
6 SD rats, each with body weight of 180-220 g, were randomly grouped into 2 groups. After fasting but with free access to water overnight, each […] in the first group was administered by gavage. 200 μL of blood was sampled from its eye socket into an anticoagulant tube respectively at each time point of 15 min, 30 min, 1 h, 2 h, 4 h, 6 h, 8 h, and 24 h after administration. Within one h, each of the blood samples was centrifuged at 10,000 rpm at 4° C. for 20 min (the sample was stored on an ice box prior to the centrifugation), and the supernatant (i.e., the plasma) was stored in a refrigerator at −20° C. for LC-MS/MS analysis. 200 μL of blood was sampled from the eye socket of each […] in the second group into an anticoagulant tube respectively at each time point of 5 min, 15 min, 30 min, 1 h, 2 h, 4 h, 8 h, and 24 h after administration by intravenous injection. Within one h, each of the blood samples was centrifuged at 10,000 rpm at 4° C. for 20 min (the blood sample was stored on an ice box prior to the centrifugation), and the supernatant, i.e., the plasma, was stored in a refrigerator at −20° C. for LC-MS/MS analysis.

A short description of data set [6]: Pharmacokinetic experiment on mice (iv and ig). Type of data set: in vivo. The conditions noted are these: mouse, plasma; for bioavailability: ig 5.00 mg/kg vs iv 1.00 mg/kg, read-out: Oral bioavailability Fobs (%); for Cmax: read-out: Peak plasma concentration Cmax.
The mark [7] stands for this setting: po, BALB/c Mice, ig, 5.00 mg/kg.

Some results are limits rather than exact numbers.

In the case of `Cn1c(=O)n(C2CCC(=O)NC2=O)c2cccc(C#CCOC3CCN(C[C@H]4CC[C@H](n5cc(NC(=O)c6cnn7ccc(N8C[C@H]9C[C@@H]8CO9)nc67)c(C(F)F)n5)CC4)CC3)c21` (stereo partly shown) [Positive compound, reference compound], the IC50 in data set [1] stood at 38.5 nM; in data set [4], 38.4 nM. Also, the half-life at 1 µM stood at 39.4 min in data set [2] and 29.4 min in data set [3].
As to `Cc1nn(C2CCC(=O)NC2=O)c2cccc(N3CC4CN(C[C@H]5CC[C@H](n6cc7cc(NC(=O)c8cnn9cccnc89)c(N8CCO[C@H](C)C8)cc7n6)CC5)CC4C3)c12` (stereo partly shown) [TM-55], the figures for the IC50 in data set [1] and in data set [4] were 5.09 nM and 7.63 nM, respectively. In addition, the DC50 at IRAK4 protein is 4.81 nM.
On to `Cc1nn(C2CCC(=O)NC2=O)c2cccc(OC3CCN(C[C@H]4CC[C@H](n5cc6cc(NC(=O)c7cnn8cccnc78)c(N7CCOCC7)cc6n5)CC4)CC3)c12` (stereo partly shown) [TM-56], for which the half-life at 1 µM in data set [2] was 80.8 min; in data set [3], 70.1 min. The exposure (AUC) was 1900 ng·h/mL in data set [5] (iv, 1.00 mg/kg); 1060 ng·h/mL in data set [5] (po, ig, 5.00 mg/kg); 2510 ng·h/mL in data set [6] (po, ICR Mice, ig, 5.00 mg/kg); 524 ng·h/mL in data set [6] (ICR Mice, iv, 1.00 mg/kg). In addition, the AUC(0-inf) turned out to be 1980 ng·h/mL in data set [5] (iv, 1.00 mg/kg); 1120 ng·h/mL in data set [5] (po, ig, 5.00 mg/kg); 2820 ng·h/mL in data set [6] (po, ICR Mice, ig, 5.00 mg/kg); 613 ng·h/mL in data set [6] (ICR Mice, iv, 1.00 mg/kg). The Cmax in data set [5] (iv, 1.00 mg/kg) worked out at 477 ng/mL; in data set [5] (po, ig, 5.00 mg/kg), 96 ng/mL; in data set [6] (po, ICR Mice, ig, 5.00 mg/kg), 220 ng/mL; in data set [6] (ICR Mice, iv, 1.00 mg/kg), 81 ng/mL. For the same compound, the bioavailability in data set [5] (po) was 10.7%; in data set [6] (po, ICR Mice) it was 91.9%. Also, half-maximal inhibition in data set [4] (IC50) was put at 5.49 nM.
For the compound `Cc1nn(C2CCC(=O)NC2=O)c2cccc(N3CCC(CN4CCC(N5Cc6cc(NC(=O)c7cnn8cccnc78)c(N(C)C)cc6C5=O)CC4)CC3)c12` (stereo not shown) [TM-66], the IC50 in data set [1] is 262 nM; in data set [4] it was 19.4 nM. It took 0.57 nM to reach half-maximal degradation on IRAK4 protein (DC50).
As to `Cc1nn(C2CCC(=O)NC2=O)c2cccc(N3CCC4(CC3)CN(C[C@H]3CC[C@H](n5cc6cc(NC(=O)c7cnn8cccnc78)c(N(C)C)cc6n5)CC3)C4)c12` (stereo partly shown) [TM-101], the DC50 at IRAK4 protein was < 0.1 nM. The AUC in data set [5] (iv, 1.00 mg/kg) was 625 ng·h/mL; in data set [5] (po, ig, 5.00 mg/kg), 374 ng·h/mL; in data set [6] (setting [7]), 3370 ng·h/mL; in data set [6] (BALB/c Mice, iv, 1.00 mg/kg) it was 3390 ng·h/mL. Moreover, the AUC(0-inf) came out at 674 ng·h/mL in data set [5] (iv, 1.00 mg/kg); 435 ng·h/mL in data set [5] (po, ig, 5.00 mg/kg); 3550 ng·h/mL in data set [6] (setting [7]); 3520 ng·h/mL in data set [6] (BALB/c Mice, iv, 1.00 mg/kg). Moreover, the Cmax stood at 151 ng/mL in data set [5] (iv, 1.00 mg/kg); 23 ng/mL in data set [5] (po, ig, 5.00 mg/kg); 356 ng/mL in data set [6] (setting [7]); 580 ng/mL in data set [6] (BALB/c Mice, iv, 1.00 mg/kg). The bioavailability in data set [5] (po) was 11.1%; in data set [6] (po, BALB/c Mice) it was 20.1%. Besides, the concentration for half-maximal inhibition (IC50) in data set [4] was determined as 1.17 nM.

The term IC50 denotes the concentration that inhibits the measured activity by half. Low readings indicate inhibition by little substance, high ones a need for much substance. What is called half-life is the time needed for the level to fall by half in the phase considered. The low end stands for rapid decline, the high end for slow decline. Usually DC50 stands for the concentration at which degradation of the target reaches its halfway point. Low values mean a more potent degrader, high ones a less potent degrader. What is called AUC is concentration integrated over time. Higher therefore signals more exposure. Usually AUC(0-inf) stands for total exposure, with the tail of the curve extrapolated. Low readings indicate less exposure, high ones more exposure. The bioavailability is dose-corrected exposure relative to a reference, in per cent.
